Laboratory results from US10617674B2, “Dosage regimen for the treatment of acute exacerbations of inflammatory conditions” (MEREO BIOPHARMA 1 LIMITED, priority 2016, dated 2020).

Tests used:
[1] = Oral bioavailability in the monkey; conditions: in vivo, estimated
[2] = Plasma protein binding, free fraction in human plasma samples; type: in vitro ADME
[3] = Oral bioavailability in the dog; conditions: in vivo, estimated
p38a = p38a (Homo sapiens, UniProt Q16539); assay: p38a kinase K (Ki) and IC50 values; type: biochemical
p38a, sequence (Q16539 whole entry): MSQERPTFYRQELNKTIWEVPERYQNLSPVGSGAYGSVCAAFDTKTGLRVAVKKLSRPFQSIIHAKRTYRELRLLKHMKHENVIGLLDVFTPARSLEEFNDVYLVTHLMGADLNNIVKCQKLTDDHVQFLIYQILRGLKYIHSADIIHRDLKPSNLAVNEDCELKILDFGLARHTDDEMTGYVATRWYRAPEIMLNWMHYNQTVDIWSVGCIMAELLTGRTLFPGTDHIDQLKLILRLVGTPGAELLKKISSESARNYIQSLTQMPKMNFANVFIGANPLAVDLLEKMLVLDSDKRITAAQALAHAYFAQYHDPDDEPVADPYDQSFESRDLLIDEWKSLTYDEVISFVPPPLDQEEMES

p3813 = p3813 (Homo sapiens, UniProt Q15759); assay: p3813 kinase K (Ki) and IC50 values; type: biochemical
p3813, sequence (Q15759 whole entry): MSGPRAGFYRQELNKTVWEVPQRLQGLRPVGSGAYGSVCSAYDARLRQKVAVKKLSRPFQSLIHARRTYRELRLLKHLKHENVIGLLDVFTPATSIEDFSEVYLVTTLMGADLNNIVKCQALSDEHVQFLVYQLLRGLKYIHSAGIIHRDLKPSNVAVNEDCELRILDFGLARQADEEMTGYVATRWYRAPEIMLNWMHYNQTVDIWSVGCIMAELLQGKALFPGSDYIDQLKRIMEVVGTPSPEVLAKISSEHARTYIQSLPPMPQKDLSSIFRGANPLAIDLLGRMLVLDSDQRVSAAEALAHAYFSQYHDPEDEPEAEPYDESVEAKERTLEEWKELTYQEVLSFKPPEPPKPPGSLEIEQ

p38a and p3813 = assay: Estimated enzyme inhibition from drug levels relative to Ki and IC50
Procedure: The concentration based on free fraction is at or above 740 nM for the duration of the dosing interval. Cmax is approximately 2 μM based on the first dose.

[4] = PK profile of the Day 1, 3 and 5 oral dosing regimen (drug levels); type: in vivo, human
From the text: This study investigated the efficacy, safety and tolerability of two different dosing regimens of 3-[5-amino-4-(3-cyanobenzoyl)-pyrazol-1-yl]-N-cyclopropyl-4-methyl benzamide added to SoC (systemic corticosteroids and/or antibiotics) versus placebo added to SoC in subjects with severe acute exacerbations of asthma. The proposed doses take into account trough levels based on PK modelling to ensure that the drug rapidly achieves and remains at effective concentrations between doses.
Overall, a dose-dependent reduction in TNF-α levels has been observed following doses ranging from 0.1 to 75 mg 3-[5-amino-4-(3-cyanobenzoyl)-pyrazol-1-yl]-N-cyclopropyl-4-methylbenzamide, although flattening of this effect to between 45 to 50% of placebo levels occurred between doses of 30 and 75 mg. A number of PK studies have been performed looking at both dosing intervals (Days 1, 3 and 5 (FIGS. 1-4, top panels) versus Days 1, 4 and 7 (FIGS. 1-4 bottom panels)), as well as dose levels (approximately 75/40/40 mg (FIG. 1); approximately 75/20/20 (FIG. 2); approximately 40/40/40 mg (FIG. 3); approximately 40/20/20 mg (FIG. 4), etc.). Based on exposures of the various regimens, there is limited benefit in dosing beyond Day 5 for a typical exacerbation.

[5] = Oral bioavailability in the rat; conditions: in vivo, estimated

Cc1ccc(C(=O)NC2CC2)cc1-n1ncc(C(=O)c2cccc(C#N)c2)c1N [3-[5-amino-4-(3-cyanobenzoyl)-pyrazol-1-yl]-N-cyclopropyl-4-methylbenzamide]
bioavailability [1]: 90% | fraction unbound [2]: 0.13 to 0.25 | bioavailability [3]: 87% | IC50 (p38a): 37 nM | Ki (p38a): 49 nM | IC50 (p3813): 106 nM | Ki (p3813): 72 nM | duration of >99% enzyme inhibition (p38a and p3813): 6 days | enzyme inhibition (p38a and p3813): > 99% | drug levels maintained ([4]; dosing at Day 1, 3 and 5): above 220 ng/mL | plasma concentration ([4]; dosing at Day 1, 3 and 5): 5700 nM | concentration based on free fraction ([4]; for the duration of the dosing interval): ≥ 740 nM | Cmax ([4]; human, plasma, oral, based on the first dose): ~2000 nM | bioavailability [5]: 93%
